The text below walks through data of PMC9227305, “Photoinduced Synthesis of Methylated Marine Cyclopeptide Galaxamide Analogs with Isoindolinone as Anticancer Agents” (Marine Drugs, 2022).

Where two headings read alike, the source gives them in different places. *1 amine or outer side, *2 acyl side, *3 side chain or, on linkers, in order; H or OH if unused. Where a SMILES comes first, the peptide text is derived from it. [ ]: non-standard residue; d: D form. X1 = O=C1c2ccccc2[C@@](O)(CN(Cc2ccccc2)[*:1])N1CC(=O)[*:2]; NMeL = CN[C@@H](CC(C)C)C(=O)O

Data set [1] deals with HepG-2 cells. In words: cells. The note with it: compound 8 vs compound 4. An excerpt:
(§1) The antitumor activity of the prepared cyclic peptides against human hepatocellular carcinoma cells (HepG-2), human cervical cancer cell lines (HeLa) and human breast cancer cells (MDA-MB-231) was examined by MMT assay, and the mouse fibroblast L929 cells were used as the model cells to evaluate the toxicity of cyclopeptides to normal cell lines. Due to the absence of an authentic standard, taxol was chosen as a control because it is a widely used chemotherapeutic drug for the treatment of various cancers, including liver cancer.
(§2) Samples were dissolved in DMSO and diluted into different concentrations ([…], 18.75, 25, 37.5, 50, 75, 100 and 250 μM) and stored at 4 °C. Cells in the logarithmic growth phase were digested with trypsin and then seeded in 96-well plates at a density of 2 × 10^4 cells/well in 100 μL of culture medium. The cells were treated with different concentrations of the tested compound, and a blank control group without the drug was also set up. Six wells were repeated for each dose. After 48 h of co-incubation, MTT solution (100 μL, 0.5 mg/mL) was added, followed by incubation for another 4 h. After discarding the supernatant, 100 μL of DMSO was added per well, and the absorbance (OD) values were measured at 490 nm using an enzyme marker. Cell viability was calculated by the formula: Cell viability (%) = As/Ab × 100% (where As is the absorbance value of the experimental group and Ab is the absorbance value of the blank group). The obtained data were processed using SPSS19 software to obtain IC50 values.

The next data set relates to L929 cells. The experiment in a line: cells. To be noted: 48 h.
Source text: as §1, §2

A further data set relates to MDA-MB-231 cells. It is filed as cell-based, human. To be noted: 48 h.
Source text: as §1, §2

In data set [2] the test system is HepG-2 cells. It is filed as cell-based, human. The note with it: 48 h; for Q4 cells (viable, lower left): human. The procedure: HepG-2 cells were treated with 0, 5.5, 11 and 22 µM of compound 8 and incubated for 48 h, then double-stained carefully by membrane-linked protein Annexin-V-fluorescein isothiocyanate (FITC) and propidium iodide (PI) for flow cytometry analysis. Generally, in the early stages of apoptosis, phosphatidylserine flips from the inner cell membrane to the surface of the cell membrane. […] Propidium iodide (PI) is a nucleic acid dye that can only cross the membrane of advanced apoptosis and necrotic cells, reddening the nucleus. Therefore, when the drug-treated cells are double-stained by the two fluorescent dyes, early and late apoptosis and necrotic cells can be clearly distinguished.
HepG-2 cells were seeded in a 6-well plate (2 × 10^5 cells per well). The different concentrations of compound 8 (0, 5.5, 11, 22 μg/mL) were added and incubated for 48 h to induce apoptosis. The collected cells were centrifuged (2000 r/min) for 5 min and resuspended in PBS (200 μL). Then, 5 μL of Annexin V-FITC was added and incubated for 10 min at room temperature away from light. Finally, 5 µL propidium iodide solution was added and incubated for 5 min away from light. The fluorescence intensity was detected by flow cytometry and analyzed by utilizing FlowJo_V10 software (FlowJo X 10.0.7r2, BD Biosciences, Franklin Lakes, NJ, USA).

Data set [3] concerns HepG-2 cells. In words: Cell cycle analysis by PI flow cytometry. It is filed as cell-based, human. The procedure:
The four phases in the cell cycle, mitosis (M), gap 1 (G1), synthesis of DNA (S), and gap 2 (G2), can be analysized by a commonly used dye, propidium iodide (PI), which could intercalate into the major groove of double-stranded DNA and produce a highly fluorescent adduct that can be detected due to its broad emission around 600 nm. In this research, the drug-treated tumor cells were fixed overnight at 4 °C with 70% ice-cold ethanol and then treated with Rnase A/PI for 60 min at 37 °C and analyzed by flow cytometry.
HepG-2 cells were inoculated in 6-well plates and incubated for 24 h. Then, different concentrations of compound 8 were added to the wells and incubated for the required time. The collected cells in the experimental and control groups were digested with trypsin, centrifuged (1000 r/min, 5 min), resuspended in PBS and fixed by 70% ice ethanol (3 mL) at −20 °C for 24 h. Then, cells were washed twice with PBS and resuspended in PBS (0.9 mL), then treated with 100 µL RNase (100 µg/mL) for 30 min at 37 °C. After centrifuging the mixture for 5 min, the cells were resuspended in 50 µg/mL PBS and stained with 600 µL of PI solution (Beyotime Biotechnology, Shanghai, China) for 60 min at 4 °C to stain. Finally, the physical properties of individual cells at different mitotic stages were analyzed by flow cytometry (BD Accuri C6, BD Biosciences, Franklin Lakes, NJ, USA).
A general note: A flow cytometer gives signals particle by particle.

Another data set concerns cytochrome C. The experiment in a line: Western blot of cytochrome C in the cytosol. It is filed as cell-based, human. To be noted: HepG-2 cells, increasing peptide concentrations, vs control. An excerpt:
Moreover, as mentioned previously and in others’ reports, the apoptosis of HepG-2 induced by galaxamide might be related to a mitochondria-mediated pathway. It has been known that with the decrease in the mitochondrial membrane potential, the cytochrome C in mitochondrion is released to the cytosol and can be detected. Therefore, we have also checked the content of cytochrome C in the cytosol by Western blotting to further verify the mitochondrial apoptotic pathway.
HepG-2 cells (5 × 10^6 cells) in the medium were treated with different concentrations of compounds for the required time and were washed twice with ice-cold PBS. The cells were scraped into cell lysate buffer containing phenylmethanesulfonyl fluoride (PMSF) and transferred to a 1.5 mL centrifuge tube, then lysed for 20 min at 4 °C. After centrifuging (12,000 r/min) for 20 min, the supernatant was collected and measured using the BCA Protein Assay Kit (Beyotime Biotechnology Co. Ltd., Shanghai, China)). Protein samples were then electrophoresed on 12% SDS-polyacrylamide gels and transferred to polyvinylidene difluoride (PVDF) membranes. The membranes were then closed with 5% skim milk in Tris-buffered saline Tween 20 (TBST) (containing 50 mM Tris-HCl, 150 mM NaCl and 0.02% Tween-20) for 2 h. […]

Regarding `CC(C)C[C@@H]1NC(=O)CN2C(=O)c3ccccc3[C@@]2(O)CN(Cc2ccccc2)C(=O)[C@H](CC(C)C)NC(=O)[C@H](CC(C)C)N(C)C(=O)[C@H](CC(C)C)NC(=O)[C@H](CC(C)C)NC1=O` [Compound 8, 3-Hydroxy-isoindolinone-cyclo-Gly-Leu-N-Me-Leu-Leu-Leu-Leu] (cyclo(LL[NMeL]L[X1]L)), in the data set on HepG-2 cells [1], the “antitumor activity relative to compound 4” value is on record as “eight times stronger”. For the same compound, the IC50 in the data set on L929 cells was above 400 µM; in the data set with MDA-MB-231 cells, 41.7 ± 3.2 µM. Moreover, the “Q3 cells (apoptosis cells)” value in the data set with HepG-2 cells [2] (22 μM) is reported as 32.4%. The “Q4 cells (viable, lower left)” value in the data set on HepG-2 cells [2] (5.5 µM) is reported as 86.2%; with HepG-2 cells [2] (11 µM), 77.3%; in the data set on HepG-2 cells [2] (22 µM) it was 65.4%. Further, the “4N (G2/M phase) cells” value in the data set on HepG-2 cells [3] (5.5 μM, 48 h) was 12.0%; in the data set with HepG-2 cells [3] (11 μM, 12 h), 10.1%; in the data set with HepG-2 cells [3] (11 μM, 24 h), 17.4%; in the data set with HepG-2 cells [3] (11 μM, 48 h), 25.8%; with HepG-2 cells [3] (22 μM, 48 h) it was 33.0%. Also, the “level of cytochrome C in the cytosol” value with cytochrome C is “increased significantly”.

As a reminder, the IC50 is the concentration needed to halve the response being measured.
